Like-named read-outs stand apart in the source and are kept apart here.
Target: T1, human TRPA1 (Homo sapiens, UniProt O75762)
T1 construct: expressed in transfected cells; host or cells: Human embryonic kidney-derived 293T cells, transiently transfected with the pcDNA3.1/zeo(+) human TRPA1 plasmid
Assay: Measurement of TRPA1 antagonist activity (intracellular calcium increase, FLIPR, allylisothiocyanate stimulation)
Assay type: cell-based
Settings: read-out: antagonism hTRPA1
In short: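 IC50 derives from a sigmoid fit of inhibition of the 5-min FLIPR fluorescence change evoked by 20 μM allylisothiocyanate, normalized between agonist and buffer responses. Test substance, diluted in HBSS/20 mM HEPES pH 7.2 plus 0.1% BSA, was applied 10 min beforehand at room temperature to Calcium4-loaded 293T cells transiently expressing human TRPA1.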

[1] = allylisothiocyanate 20 μM stimulation, FLIPR calcium assay
[2] = 293T cells transfected with human TRPA1, allylisothiocyanate 20 μM, concentration for 50% inhibitory rate

T1 sequence (O75762 whole entry): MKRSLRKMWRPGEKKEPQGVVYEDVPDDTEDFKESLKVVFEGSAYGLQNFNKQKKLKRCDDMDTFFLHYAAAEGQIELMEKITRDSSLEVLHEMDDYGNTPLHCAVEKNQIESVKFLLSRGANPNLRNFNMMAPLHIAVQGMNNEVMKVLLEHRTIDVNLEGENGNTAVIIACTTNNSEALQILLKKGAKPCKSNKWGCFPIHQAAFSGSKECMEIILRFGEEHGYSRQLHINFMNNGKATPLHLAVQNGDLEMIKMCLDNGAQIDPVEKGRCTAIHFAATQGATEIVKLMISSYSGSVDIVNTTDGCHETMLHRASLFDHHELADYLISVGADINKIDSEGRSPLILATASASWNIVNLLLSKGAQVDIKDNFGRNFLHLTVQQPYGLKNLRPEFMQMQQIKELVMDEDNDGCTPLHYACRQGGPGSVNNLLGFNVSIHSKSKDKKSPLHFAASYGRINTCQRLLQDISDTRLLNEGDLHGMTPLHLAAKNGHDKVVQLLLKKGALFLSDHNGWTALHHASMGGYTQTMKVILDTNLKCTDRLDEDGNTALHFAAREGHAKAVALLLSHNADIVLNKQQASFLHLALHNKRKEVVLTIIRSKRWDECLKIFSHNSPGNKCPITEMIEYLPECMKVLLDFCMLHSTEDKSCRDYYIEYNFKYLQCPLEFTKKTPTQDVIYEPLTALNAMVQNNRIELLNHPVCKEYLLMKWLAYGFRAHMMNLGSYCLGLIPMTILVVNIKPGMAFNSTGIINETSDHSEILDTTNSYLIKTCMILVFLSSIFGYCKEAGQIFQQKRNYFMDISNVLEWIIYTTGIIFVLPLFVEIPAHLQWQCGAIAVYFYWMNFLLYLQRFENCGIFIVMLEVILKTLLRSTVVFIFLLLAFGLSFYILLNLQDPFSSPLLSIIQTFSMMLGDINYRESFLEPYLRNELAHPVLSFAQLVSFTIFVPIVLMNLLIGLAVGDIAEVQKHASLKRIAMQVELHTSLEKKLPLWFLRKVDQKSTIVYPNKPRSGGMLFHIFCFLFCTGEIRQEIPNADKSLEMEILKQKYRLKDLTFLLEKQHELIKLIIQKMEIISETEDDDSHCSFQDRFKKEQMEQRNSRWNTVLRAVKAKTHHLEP

SMILES | IC50 [1] [nM] | IC50 [2] [nM]
O=C(NCc1cccc(OCc2ccc(C(F)(F)F)cc2)c1)[C@@H]1CCCN1S(=O)(=O)c1cccc2nsnc12 [Example 211, (2S)-1-(2,1,3-benzothiadiazol-4-ylsulfonyl)-N-[[3-[[4-(trifluoromethyl)phenyl]methoxy]phenyl]methyl]pyrrolidine-2-carboxamide] | 5500 | –
COC(=O)c1ccc(OCc2ccc(CNC(=O)[C@@H]3CCCN3S(=O)(=O)c3ccc(Cl)s3)cc2)cc1 [Example 48, methyl 4-((4-({[(2S)-1-(5-chlorothiophene-2-sulfonyl)pyrrolidine-2-carbonyl]amino}methyl)phenyl)methoxy)benzoate] | – | 630
O=C(NCc1ccc(COc2ccc3ncccc3c2)cc1)[C@@H]1CCCN1S(=O)(=O)c1ccc(Cl)s1 [Example 68, (2S)-1-(5-chlorothiophene-2-sulfonyl)-N-{[4-(6-quinolyloxy-methyl)phenyl]methyl}pyrrolidine-2-carboxamide] | – | 4400
O=C(NCc1cccc(OCc2cncc(C(F)(F)F)c2)c1)[C@@H]1CCCN1S(=O)(=O)c1ccc(F)cc1 [Example 137, (2S)-1-(4-fluorophenyl)sulfonyl-N-[[3-[[5-(trifluoromethyl)-3-pyridyl]methoxy]phenyl]methyl]pyrrolidine-2-carboxamide] | 44 | –
O=C(NCc1cccc(OCc2ccc(C(F)(F)F)nc2)c1)[C@@H]1CCCN1S(=O)(=O)c1ccc(F)cc1 [Example 134, (2S)-1-(4-fluorophenyl)sulfonyl-N-[[3-[[6-(trifluoromethyl)-3-pyridyl]methoxy]phenyl]methyl]pyrrolidine-2-carboxamide] | 38 | –
CN(C)c1cccc(COc2cccc(CNC(=O)[C@@H]3CCCN3S(=O)(=O)c3ccc(F)cc3)c2)c1 [Example 125, (2S)-N-[[3-[[3-(dimethylamino)phenyl]methoxy]phenyl]methyl]-1-(4-fluorophenyl)sulfonyl-pyrrolidine-2-carboxamide] | 38 | –
CC(Oc1cccc(CNC(=O)[C@@H]2CCCN2S(=O)(=O)c2ccc(F)cc2)c1)c1ccc(Cl)cc1 (stereo in doubt) [Example 145, (2S)-N-[[3-[(1R)-1-(4-chlorophenyl)ethoxy]phenyl]methyl]-1-(4-fluorophenyl)sulfonyl-pyrrolidine-2-carboxamide] | 65 | –
O=C(NCc1cccc(OCc2cncc(Cl)c2)c1)[C@@H]1CCCN1S(=O)(=O)c1ccc(F)cc1 [Example 138, (2S)-N-[[3-[(5-chloro-3-pyridyl)methoxy]phenyl]methyl]-1-(4-fluorophenyl)sulfonyl-pyrrolidine-2-carboxamide] | 110 | –
COc1ccc(OCc2ccc(CNC(=O)[C@@H]3CCCN3S(=O)(=O)c3ccc(Cl)s3)cc2)cc1 [Example 45, (2S)-1-(5-chlorothiophene-2-sulfonyl)-N-({4-[(4-methoxy-phenoxy)methyl]phenyl}methyl)pyrrolidine-2-carboxamide] | – | 670
O=C(NCc1ccc(COc2ccccc2)cc1)[C@@H]1CC(O)CN1S(=O)(=O)c1ccc(Cl)s1 (stereo partly drawn) [Example 87] | – | 7700
O=C(NCc1cccc(OCc2ccco2)c1)[C@@H]1CCCN1S(=O)(=O)c1ccc(F)cc1 [Example 140, (2S)-1-(4-fluorophenyl)sulfonyl-N-[[3-(2-furylmethoxy)phenyl]methyl]pyrrolidine-2-carboxamide] | 330 | –
O=C(NCc1cccc(OCc2cccnc2)c1)[C@@H]1CCCN1S(=O)(=O)c1ccc(F)cc1 [Example 132, (2S)-1-(4-fluorophenyl)sulfonyl-N-[[3-(3-pyridylmethoxy)phenyl]methyl]pyrrolidine-2-carboxamide] | 2600 | –
O=C(NCc1cccc(OCc2ccc(C(F)(F)F)cc2)c1)[C@@H]1C[C@@H](O)CN1S(=O)(=O)c1ccc(F)cc1 [Example 169, (2S,4R)-1-(4-fluorophenyl)sulfonyl-4-hydroxy-N-[[3-[[4-(trifluoromethyl)phenyl]methoxy]phenyl]methyl]pyrrolidine-2-carboxamide] | 290 | –
O=C(NCc1ccc(COc2ccc(Cl)cc2)cc1)[C@@H]1CCCN1S(=O)(=O)c1ccc(Cl)s1 [Example 47, (2S)-N-({4-[(4-chlorophenoxy)methyl]phenyl}methyl)-1-(5-chlorothiophene-2-sulfonyl)pyrrolidine-2-carboxamide] | – | 620
CC(=O)c1ccc(S(=O)(=O)N2CCC[C@H]2C(=O)NCc2cccc(OCc3ccc(C(F)(F)F)cc3)c2)cc1 [Example 195, (2S)-1-(4-acetylphenyl)sulfonyl-N-[[3-[[4-(trifluoromethyl)phenyl]methoxy]phenyl]methyl]pyrrolidine-2-carboxamide] | 1700 | –
O=C(NCc1cccc(OCc2ccccc2)c1)[C@@H]1C=CCN1S(=O)(=O)c1ccco1 [Example 182, (2S)-N-[(3-benzyloxyphenyl)methyl]-1-(2-furylsulfonyl)-2,5-dihydropyrrole-2-carboxamide] | 83 | –

Results, then the compound that gave them:

IC50 [1] [nM] | IC50 [2] [nM] | SMILES
120 | – | O=C(NCc1cccc(OCc2ccc(C(F)(F)F)cc2)c1)[C@@H]1CCCN1S(=O)(=O)c1nc2ccccc2s1 [Example 219, (2S)-1-(1,3-benzothiazol-2-ylsulfonyl)-N-[[3-[[4-(trifluoromethyl)phenyl]methoxy]phenyl]methyl]pyrrolidine-2-carboxamide]
240 | – | N#Cc1ccc(S(=O)(=O)N2CCC[C@H]2C(=O)NCc2cccc(OCc3ccc(C(F)(F)F)cc3)c2)cc1 [Example 185, (2S)-1-(4-cyanophenyl)sulfonyl-N-[[3-[[4-(trifluoromethyl)phenyl]methoxy]phenyl]methyl]pyrrolidine-2-carboxamide]
– | 16 | O=C(NCc1cccc(OCc2cccc(OC(F)(F)F)c2)c1)[C@@H]1CCCN1S(=O)(=O)c1ccc(Cl)s1 [Example 101]
– | 170 | O=C(NCc1ccc(Oc2cccc(F)c2)cc1)[C@@H]1CCCN1S(=O)(=O)c1ccc(Cl)s1 [Example 9, (2S)-1-(5-chlorothiophene-2-sulfonyl)-N-{[4-(3-fluoro-phenoxy)phenyl]methyl}pyrrolidine-2-carboxamide]
180 | – | O=C(NCc1ccc(Oc2cccc(C(F)(F)F)c2)cc1)[C@@H]1CCCN1S(=O)(=O)c1ccsc1 [Example 154, (2S)-1-(3-thienylsulfonyl)-N-[[4-[3-(trifluoromethyl)phenoxy]phenyl]methyl]pyrrolidine-2-carboxamide]
400 | – | O=C(NCc1cccc(OCc2ccc(C(F)(F)F)cc2)c1)[C@@H]1CCCN1S(=O)(=O)c1ccccn1 [Example 202, (2S)-1-(2-pyridylsulfonyl)-N-[[3-[[4-(trifluoromethyl)phenyl]methoxy]phenyl]methyl]pyrrolidine-2-carboxamide]
– | 150 | O=C(NCc1cccc(Oc2ccc(C(F)(F)F)cc2)c1)[C@@H]1CCN1S(=O)(=O)c1ccc(Cl)s1 [Example 34, (2S)-1-(5-chlorothiophene-2-sulfonyl)-N-({3-[4-(trifluoro-methyl)phenoxy]phenyl}methyl)azetidine-2-carboxamide]
– | 28 | O=C(NCc1cccc(Oc2ccc(C(F)(F)F)cc2)c1)[C@@H]1C=CCN1S(=O)(=O)c1ccc(F)cc1 [Example 36, (2S)-1-(4-fluorophenyl)sulfonyl-N-({3-[4-(trifluoromethyl)phenoxy]phenyl}methyl)-2,5-dihydropyrrole-2-carboxamide]
– | 370 | O=C(NCc1ccc(OCc2ccccc2C(F)(F)F)cc1)[C@@H]1CCCN1S(=O)(=O)c1ccc(Cl)s1 [Example 94]
– | 100 | O=C(NCc1ccc(Oc2cccc(Cl)c2)cc1)[C@@H]1CCCN1S(=O)(=O)c1ccc(Cl)s1 [Example 8, (2S)-N-{[4-(3-chlorophenoxy)phenyl]methyl}-1-(5-chlorothiophene-2-sulfonyl)pyrrolidine-2-carboxamide]
– | 1900 | O=C(NCc1c(F)ccc(Oc2ccc(C(F)(F)F)cc2)c1Cl)[C@@H]1CCCN1S(=O)(=O)c1ccc(Cl)s1 [Example 28, (2S)-N-({2-chloro-6-fluoro-3-[4-(trifluoromethyl)phenoxy]phenyl}methyl)-1-(5-chlorothiophene-2-sulfonyl)pyrrolidine-2-carboxamide]
1000 | – | Cc1sccc1S(=O)(=O)N1CCC[C@H]1C(=O)NCc1cccc(OCc2ccc(C(F)(F)F)cc2)c1 [Example 204, (2S)-1-[(2-methyl-3-thienyl)sulfonyl]-N-[[3-[[4-(trifluoromethyl)phenyl]methoxy]phenyl]methyl]pyrrolidine-2-carboxamide]
840 | – | O=C(NCc1cccc(Oc2ccc(C(F)(F)F)cc2)c1)[C@@H]1C[C@H](F)CN1S(=O)(=O)c1ccc(F)cc1 [Example 157, (2S,4S)-4-fluoro-1-(4-fluorophenyl)sulfonyl-N-[[3-[4-(trifluoromethyl)phenoxy]phenyl]methyl]pyrrolidine-2-carboxamide]
– | 140 | O=C(NCc1ccc(Oc2cccc(C(F)(F)F)c2)cc1)[C@@H]1C=CCN1S(=O)(=O)c1ccc(Cl)s1 [Example 29, (2S)-1-(5-chlorothiophene-2-sulfonyl)-N-({4-[3-(trifluoromethyl)phenoxy]phenyl}methyl)-2,5-dihydropyrrole-2-carboxamide]
– | 87 | O=C(NCc1ccc(Oc2ccnc(C(F)(F)F)c2)cc1)[C@@H]1CCCN1S(=O)(=O)c1ccc(Cl)s1 [Example 12, (2S)-1-(5-chlorothiophene-2-sulfonyl)-N-((4-{[2-(trifluoro-methyl)-4-pyridyl]oxy}phenyl)methyl)pyrrolidine-2-carboxamide]
– | 810 | O=C(NCc1cccc(Oc2ccc(C(F)(F)F)cc2)c1)C1COCCN1S(=O)(=O)c1ccc(Cl)s1 (stereo not drawn) [Example 35, 4-(5-chlorothiophene-2-sulfonyl)-N-({3-[4-(trifluoro-methyl)phenoxy]phenyl}methyl)morpholine-3-carboxamide]
– | 30 | O=C(NCc1cccc(OCc2ccc(OC(F)(F)F)cc2)c1)[C@@H]1CCCN1S(=O)(=O)c1ccc(Cl)s1 [Example 97]

— patent publication US20150284375A1 (AJINOMOTO CO., INC., priority 2012, published 2015)
